Assay results reported in patent US7888523B2, “Preparation of platinum(II) complexes” (Platco Technologies (Proprietary) Limited, priority 2004, dated 2011).

Columns and labels:
[1] = test system: breast cancer cells; assay: Anticancer testing, inhibition of breast cancer cells; type: cell-based; settings: 100 μM solution, medium containing 10 mM glutathione
Protocol: (§1) Anticancer testing on the halogenoplatinum(II) complex of Example 8 was performed and compared with cisplatin. […] The corresponding values for cisplatin are 85.6% and 93.2%. The corresponding data on cervical cancer cells are 88.5 and 95.9% at 10 and 100 μM solutions. The corresponding values for cisplatin are 85.4 and 95% respectively. A further study in which 100 μM solutions were used in a medium containing 10 mM glutathione, the halogenoplatinum(II) complex performed even better, viz.

[2] = test system: colon cancer cells; assay: Anticancer testing, inhibition of colon cancer cells; type: cell-based; settings: for inhibition on colon cells: medium containing 10 mM glutathione
Protocol: as §1

[3] = test system: cervical cancer cells; assay: Anticancer testing, inhibition of cervical cancer cells; type: cell-based; settings: for inhibition on cervical cancer cells: medium containing 10 mM glutathione
Protocol: as §1

[4] = Anti-cancer properties (test not specified); settings: statement in words, no test details

N.N.[Cl][Pt][Cl] [cisplatin, reference compound]
inhibition on breast cancer cells [1]: 14% | percentage inhibition on colon cancer cells ([2]; 10 μM solution): 85.6% | percentage inhibition on colon cancer cells ([2]; 100 μM solution): 93.2% | inhibition on colon cells ([2]; 100 μM solution): 48.0% | percentage inhibition on cervical cancer cells ([3]; 100 μM solution): 95% | inhibition on cervical cancer cells ([3]; 100 μM solution): 58.6%

CSCc1nccn1C.[Cl][Pt][Cl] [Pt(mmtei)Cl2, bis-chloro-(1-methyl-2-methylthiomethyl-imidazole)platinum(II)]
inhibition on breast cancer cells [1]: 66.1% | percentage inhibition on colon cancer cells ([2]; 10 μM solution): 92.8% | percentage inhibition on colon cancer cells ([2]; 100 μM solution): 97.0% | inhibition on colon cells ([2]; 100 μM solution): 98.2% | percentage inhibition on cervical cancer cells ([3]; 10 μM solution): 88.5% | percentage inhibition on cervical cancer cells ([3]; 100 μM solution): 95.9% | inhibition on cervical cancer cells ([3]; 100 μM solution): 99.3% | anti-cancer properties [4]: exceptional anti-cancer properties
